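Briefly, cells in 96-well plates were exposed to five compound concentrations for 48 h, and endpoints were estimated by linear interpolation. GI50 is the concentration that inhibits growth by half.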 Active and inactive are the calls of the source. Rule as the data show it: active = GI50 up to about 1.1 µM and inactive = higher.
Assays:
Assay in all cases: growth of human tumour cells (NCI), 48 h
[1] = system: HL-60
[2] = system: CCRF-CEM
[3] = system: OVCAR-5
[4] = system: ACHN
[5] = system: RXF 393
[6] = system: RXF 631
[7] = system: NCI-H460
[8] = system: Malme-3M
[9] = system: HOP-92
[10] = system: SK-OV-3
[11] = system: A498
[12] = system: SR
[13] = system: KM12
[14] = system: M19-MEL
[15] = system: SK-MEL-28
[16] = system: U-251
[17] = system: UO-31
[18] = system: NCI-H23
[19] = system: SK-MEL-5
[20] = system: MOLT-4
[21] = system: IGROV-1
[22] = system: OVCAR-8
[23] = system: EKVX
[24] = system: A549
[25] = system: SN12C
[26] = system: HOP-18
[27] = system: OVCAR-4
[28] = system: SNB-19
[29] = system: HCC 2998
[30] = system: HCT-116
[31] = system: SK-MEL-2
[32] = system: KM-20L2
[33] = system: COLO 205
[34] = system: UACC-257
[35] = system: DMS-114
[36] = system: UACC-62
[37] = system: SF-295
[38] = system: XF498
[39] = system: M14
[40] = system: RPMI-8226
[41] = system: NCI-H522
[42] = system: CAKI-1
[43] = system: SF-268
[44] = system: SNB-75
[45] = system: HT-29
[46] = system: HCT-15
[47] = system: SF-539
[48] = system: HOP-62
[49] = system: K562
[50] = system: SNB-78
[51] = system: 786-0
[52] = system: SW-620
[53] = system: DMS-273
[54] = system: NCI-H226
[55] = system: OVCAR-3
[56] = system: LXFL 529
[57] = system: DLD-1
[58] = system: LOX IMVI
[59] = system: TK-10

Structure (SMILES): O=C1OC(c2ccc(Cl)c3ccccc23)c2ccccc21 (stereo unspecified)
- GI50 [1]: > 100 µM (inactive)
- GI50 [2]: 91.6 µM (inactive)
- GI50 [3]: > 100 µM (inactive)
- GI50 [4]: > 100 µM (inactive)
- GI50 [5]: 26.1 µM (inactive)
- GI50 [6]: > 100 µM (inactive)
- GI50 [7]: > 100 µM (inactive)
- GI50 [8]: > 100 µM (inactive)
- GI50 [9]: > 100 µM (inactive)
- GI50 [10]: > 100 µM (inactive)
- GI50 [11]: > 100 µM (inactive)
- GI50 [12]: > 100 µM (inactive)
- GI50 [13]: > 100 µM (inactive)
- GI50 [14]: > 100 µM (inactive)
- GI50 [15]: > 100 µM (inactive)
- GI50 [16]: > 100 µM (inactive)
- GI50 [17]: > 100 µM (inactive)
- GI50 [18]: > 100 µM (inactive)
- GI50 [19]: > 100 µM (inactive)
- GI50 [20]: 77.6 µM (inactive)
- GI50 [21]: > 100 µM (inactive)
- GI50 [22]: > 100 µM (inactive)
- GI50 [23]: > 100 µM (inactive)
- GI50 [24]: 76.7 µM (inactive)
- GI50 [25]: > 100 µM (inactive)
- GI50 [26]: > 100 µM (inactive)
- GI50 [27]: 63.5 µM (inactive)
- GI50 [28]: > 100 µM (inactive)
- GI50 [29]: 91.2 µM (inactive)
- GI50 [30]: 91.2 µM (inactive)
- GI50 [31]: > 100 µM (inactive)
- GI50 [32]: 64.3 µM (inactive)
- GI50 [33]: > 100 µM (inactive)
- GI50 [34]: > 100 µM (inactive)
- GI50 [35]: 71.3 µM (inactive)
- GI50 [36]: 63.2 µM (inactive)
- GI50 [37]: 70.5 µM (inactive)
- GI50 [38]: > 100 µM (inactive)
- GI50 [39]: > 100 µM (inactive)
- GI50 [40]: > 100 µM (inactive)
- GI50 [41]: > 100 µM (inactive)
- GI50 [42]: 75.5 µM (inactive)
- GI50 [43]: > 100 µM (inactive)
- GI50 [44]: 6.07 µM (inactive)
- GI50 [45]: 55.3 µM (inactive)
- GI50 [46]: 90.4 µM
- GI50 [47]: > 100 µM (inactive)
- GI50 [48]: > 100 µM (inactive)
- GI50 [49]: 55.7 µM (inactive)
- GI50 [50]: > 100 µM (inactive)
- GI50 [51]: 67.6 µM (inactive)

Structure (SMILES): COc1cc2c(c3oc(-c4ccc5c(c4)OCO5)c(O)c(=O)c13)CCC(C)(C)O2
- GI50 [1]: > 100 µM (inactive)
- GI50 [2]: 79.8 µM (inactive)
- GI50 [6]: > 100 µM (inactive)
- GI50 [52]: > 100 µM (inactive)
- GI50 [10]: > 100 µM (inactive)
- GI50 [11]: > 100 µM (inactive)
- GI50 [13]: > 100 µM (inactive)
- GI50 [14]: > 100 µM (inactive)
- GI50 [15]: > 100 µM (inactive)
- GI50 [17]: > 100 µM (inactive)
- GI50 [18]: > 100 µM (inactive)
- GI50 [19]: > 100 µM (inactive)
- GI50 [53]: > 100 µM (inactive)
- GI50 [20]: > 100 µM (inactive)
- GI50 [21]: > 100 µM (inactive)
- GI50 [22]: > 100 µM (inactive)
- GI50 [23]: > 100 µM (inactive)
- GI50 [24]: > 100 µM (inactive)
- GI50 [25]: > 100 µM (inactive)
- GI50 [26]: > 100 µM (inactive)
- GI50 [28]: > 100 µM (inactive)
- GI50 [29]: > 100 µM (inactive)
- GI50 [31]: > 100 µM (inactive)
- GI50 [33]: > 100 µM (inactive)
- GI50 [54]: > 100 µM (inactive)
- GI50 [35]: > 100 µM (inactive)
- GI50 [36]: > 100 µM (inactive)
- GI50 [37]: > 100 µM (inactive)
- GI50 [39]: > 100 µM (inactive)
- GI50 [40]: 34.5 µM (inactive)
- GI50 [55]: > 100 µM (inactive)
- GI50 [44]: 12.3 µM (inactive)
- GI50 [45]: > 100 µM (inactive)
- GI50 [56]: 22.9 µM (inactive)
- GI50 [46]: > 100 µM
- GI50 [47]: > 100 µM (inactive)
- GI50 [57]: > 100 µM (inactive)
- GI50 [49]: > 100 µM (inactive)
- GI50 [58]: > 100 µM (inactive)
- GI50 [50]: > 100 µM (inactive)
- GI50 [51]: > 100 µM (inactive)
- GI50 [59]: > 100 µM (inactive)

Structure (SMILES): N#CC(C(=O)/C(=N\NC(N)=O)C(C#N)c1ccccc1)c1ccccc1 (stereo unspecified)
- GI50 [1]: > 100 µM (inactive)
- GI50 [2]: > 100 µM (inactive)
- GI50 [3]: > 100 µM (inactive)
- GI50 [4]: > 100 µM (inactive)
- GI50 [5]: > 100 µM (inactive)
- GI50 [6]: > 100 µM (inactive)
- GI50 [7]: > 100 µM (inactive)
- GI50 [8]: > 100 µM (inactive)
- GI50 [52]: > 100 µM (inactive)
- GI50 [9]: > 100 µM (inactive)
- GI50 [10]: > 100 µM (inactive)
- GI50 [11]: > 100 µM (inactive)
- GI50 [12]: > 100 µM (inactive)
- GI50 [13]: > 100 µM (inactive)
- GI50 [15]: > 100 µM (inactive)
- GI50 [16]: > 100 µM (inactive)
- GI50 [17]: > 100 µM (inactive)
- GI50 [18]: > 100 µM (inactive)
- GI50 [53]: > 100 µM (inactive)
- GI50 [20]: > 100 µM (inactive)
- GI50 [21]: > 100 µM (inactive)
- GI50 [22]: > 100 µM (inactive)
- GI50 [23]: > 100 µM (inactive)
- GI50 [24]: > 100 µM (inactive)
- GI50 [25]: > 100 µM (inactive)
- GI50 [27]: > 100 µM (inactive)
- GI50 [28]: > 100 µM (inactive)
- GI50 [29]: > 100 µM (inactive)
- GI50 [30]: > 100 µM (inactive)
- GI50 [31]: > 100 µM (inactive)
- GI50 [32]: > 100 µM (inactive)
- GI50 [33]: > 100 µM (inactive)
- GI50 [54]: > 100 µM (inactive)
- GI50 [34]: > 100 µM (inactive)
- GI50 [36]: > 100 µM (inactive)
- GI50 [37]: > 100 µM (inactive)
- GI50 [39]: > 100 µM (inactive)
- GI50 [40]: > 100 µM (inactive)
- GI50 [41]: > 100 µM (inactive)
- GI50 [42]: > 100 µM (inactive)
- GI50 [43]: > 100 µM (inactive)
- GI50 [55]: > 100 µM (inactive)
- GI50 [44]: > 100 µM (inactive)
- GI50 [45]: > 100 µM (inactive)
- GI50 [56]: > 100 µM (inactive)
- GI50 [46]: > 100 µM
- GI50 [47]: > 100 µM (inactive)
- GI50 [48]: > 100 µM (inactive)
- GI50 [57]: > 100 µM (inactive)
- GI50 [49]: > 100 µM (inactive)
- GI50 [50]: > 100 µM (inactive)
- GI50 [51]: > 100 µM (inactive)
- GI50 [59]: > 100 µM (inactive)

— ChEMBL document CHEMBL1201862, “PubChem BioAssay data set” (2004)
